31 molecules from patent US20120214822A1 (ASTRAZENECA AB, priority 2007, published 2012) can be followed below.

For this experiment, the target named is human active recombinant p38α-6His tagged (Homo sapiens, UniProt Q16539). The experiment in a line: P38 Alpha Enzyme Assay (AlphaScreen, biotinylated-ATF2 substrate).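 Note: 0.5 nM final p38α, reaction started with ATP and run 45 min at 37 °C, phospho-ATF2 read by antibody-based AlphaScreen, background wells quenched with EDTA before ATP.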 The format is biochemical. The settings on record: p38 alpha enzyme inhibition; means of replicate determinations; 4 h pre-incubation at 37° C.; SD of assay 0.2-0.3 log units. In general terms: In Alpha technology, singlet oxygen from a donor bead excites a nearby acceptor bead.
Chain of human active recombinant p38α-6His tagged (Q16539 whole entry): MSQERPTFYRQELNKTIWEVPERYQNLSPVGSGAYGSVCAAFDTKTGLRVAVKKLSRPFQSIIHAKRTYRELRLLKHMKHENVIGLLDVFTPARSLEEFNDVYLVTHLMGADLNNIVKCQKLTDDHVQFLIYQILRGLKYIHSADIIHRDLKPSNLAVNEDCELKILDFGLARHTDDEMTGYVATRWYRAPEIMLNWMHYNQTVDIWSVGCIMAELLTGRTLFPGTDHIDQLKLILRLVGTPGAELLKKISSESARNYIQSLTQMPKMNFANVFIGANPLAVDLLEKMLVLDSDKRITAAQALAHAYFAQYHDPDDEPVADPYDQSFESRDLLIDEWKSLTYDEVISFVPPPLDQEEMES

The pIC50 is −log10 of the IC50, conventionally taken in molar units. Regarding `CNCCOc1ccccc1C1(Nc2nccn(-c3cc(C(=O)NOC)ccc3C)c2=O)CC1` [Example 317, N-Methoxy-4-methyl-3-{3-[(1-{2-[2-(methylamino)ethoxy]phenyl}cyclopropyl)amino]-2-oxopyrazin-1(2H)-yl}benzamide], the pIC50 is given as 10.1.

Regarding `CCCNCCOc1ccccc1C1(Nc2nccn(-c3cc(C(=O)NC4CC4)ccc3C)c2=O)CC1` [Example 298, N-Cyclopropyl-4-methyl-3-{2-oxo-3-[(1-{2-[2-(propylamino)ethoxy]phenyl}cyclopropyl)amino]pyrazin-1(2H)-yl}benzamide], the pIC50 was 10.2.

For the molecule `CC(C)(Nc1nccn(-c2cc(C(=O)NC3CC3)ccc2Cl)c1=O)c1ccccc1OCCN` [Example 334, 3-[3-({1-[2-(2-Aminoethoxy)phenyl]-1-methylethyl}amino)-2-oxopyrazin-1(2H)-yl]-4-chloro-N-cyclopropylbenzamide], the pIC50 came out at 9.3.

`Cc1cc(C)cc(CNc2nccn(-c3cc(C(=O)NC4CC4)ccc3C)c2=O)c1` [Example 95, N-Cyclopropyl-3-[3-[[(3,5-dimethylphenyl)methyl]amino]-2-oxo-1(2H)-pyrazinyl]-4-methyl-benzamide]: the pIC50 turned out to be 7.7.

In the case of `Cc1ccc(C(=O)NC2CC2)cc1-n1ccnc(N[C@@H](c2ccccc2)[C@@H](C)CN(C)CCN(C)C)c1=O` [Example 156, N-Cyclopropyl-3-[3-[[(1R,2S)-3-[[2-(dimethylamino)ethyl]methylamino]-2-methyl-1-phenylpropyl]amino]-2-oxo-1(2H)-pyrazinyl]-4-methyl-benzamide], the pIC50 worked out at 8.9.

In the case of `Cc1ccc(C(=O)NC2CC2)cc1-n1ccnc(NCc2ccc(Oc3ccccc3)cc2)c1=O` [Example 45, N-Cyclopropyl-4-methyl-3-[2-oxo-3-[[(4-phenoxyphenyl)methyl]amino]-1(2H)-pyrazinyl]-benzamide], the pIC50 is 6.5.

`Cc1ccc(C(=O)NC2CC2)cc1-n1ccnc(N[C@@H](c2ccccc2)[C@@H](C)CN2CC[C@H](O)C2)c1=O` [Example 190, N-Cyclopropyl-3-[3-[[(1R,2S)-3-[(3S)-3-hydroxy-1-pyrrolidinyl]-2-methyl-1-phenylpropyl]amino]-2-oxo-1(2H)-pyrazinyl]-4-methyl-benzamide]: the pIC50 is 9.

`Cc1ccc(C(=O)NC2CC2)cc1-n1ccnc(NCC2CCOCC2)c1=O` [Example 90, N-Cyclopropyl-4-methyl-3-[2-oxo-3-[[(tetrahydro-2H-pyran-4-yl)methyl]amino]-1(2H)-pyrazinyl]-benzamide]: the pIC50 is recorded as 6.4.

Turning to `Cc1ccc(C(=O)NC2CC2)cc1-n1ccnc(N[C@@H](c2ccccc2)[C@@H](C)CN2CCN(C3CCS(=O)(=O)C3)CC2)c1=O` (stereo partly drawn) [Example 191, N-Cyclopropyl-4-methyl-3-[3-[[(1R,2S)-2-methyl-1-phenyl-3-[4-(tetrahydro-1,1-dioxido-3-thienyl)-1-piperazinyl]propyl]amino]-2-oxo-1(2H)-pyrazinyl]-benzamide], the pIC50 was 9.6.

`Cc1c(F)cc(C(=O)NC2CC2)cc1-n1ccnc(NC(C)(C)c2ccccc2SCCN)c1=O` [Example 321, 3-{3-[(1-{2-[(2-Aminoethyl)sulfanyl]phenyl}-1-methylethyl)amino]-2-oxopyrazin-1(2H)-yl}-N-cyclopropyl-5-fluoro-4-methylbenzamide]: the pIC50 was determined as 9.7.

Turning to “4-Methyl-3-[3-[[[4-(4-methyl-1-piperazinyl)phenyl]methyl]amino]-2-oxo-1(2H)-pyrazinyl]-N-(1-methylpropyl)-benzamide [Example 14]”, the pIC50 is recorded as 6.

In the case of `Cc1ccc(C(=O)NC2CC2)cc1-n1ccnc(NC(C)(C)c2ccccc2OCCCNCC(F)(F)F)c1=O` [Example 207, N-Cyclopropyl-4-methyl-3-[3-[[1-methyl-1-[2-[3-[(2,2,2-trifluoroethyl)amino]propoxy]phenyl]ethyl]amino]-2-oxo-1(2H)-pyrazinyl]-benzamide], the pIC50 is reported as 8.9.

Turning to `Cc1ccc(C(=O)NC2CC2)cc1-n1ccnc(NC(C)(C)Cc2ccccc2)c1=O` [Example 65, N-Cyclopropyl-3-[3-[(1,1-dimethyl-2-phenylethyl)amino]-2-oxo-1(2H)-pyrazinyl]-4-methyl-benzamide], the pIC50 is given as 7.

As to `COc1ccccc1[C@H](Nc1nccn(-c2cc(C(=O)NC3CC3)ccc2C)c1=O)[C@@H](C)CN1CCCC1` [Example 277, N-Cyclopropyl-3-[3-[[(1R,2S)-1-(2-methoxyphenyl)-2-methyl-3-(1-pyrrolidinyl)propyl]amino]-2-oxo-1(2H)-pyrazinyl]-4-methyl-benzamide], the pIC50 came to 8.5.

As for `CNCCOc1ccccc1C(C)(C)Nc1nccn(-c2cc(C(=O)N3CCC3)ccc2C)c1=O` [Example 221, 1-[4-Methyl-3-[3-[[1-methyl-1-[2-[2-(methylamino)ethoxy]phenyl]ethyl]amino]-2-oxo-1(2H)-pyrazinyl]benzoyl]-azetidine], the pIC50 came out at 6.7.

Take `Cc1ccc(C(=O)NC2CC2)cc1-n1ccnc(NCc2cccs2)c1=O` [Example 31, N-Cyclopropyl-4-methyl-3-[2-oxo-3-[(2-thienylmethyl)amino]-1(2H)-pyrazinyl]-benzamide]: the pIC50 was determined as 7.

As to `CNCCOc1ccccc1C1(Nc2nccn(-c3cc(C(=O)NC4CC4)cc(F)c3C)c2=O)CC1` [Example 259, N-Cyclopropyl-3-fluoro-4-methyl-5-[3-[[1-[2-[2-(methylamino)ethoxy]phenyl]cyclopropyl]amino]-2-oxo-1(2H)-pyrazinyl]-benzamide], the pIC50 is 10.

As for `Cc1ccc(C(=O)NC2CC2)cc1-n1ccnc(NCc2cnc3ccccc3c2)c1=O` [Example 28, N-Cyclopropyl-4-methyl-3-[2-oxo-3-[(3-quinolinylmethyl)amino]-1(2H)-pyrazinyl]-benzamide], the pIC50 turned out to be 6.2.

In the case of `Cc1ccc(C(=O)NC2CC2)cc1-n1ccnc(N2CCCCC2)c1=O` [Example 76, N-Cyclopropyl-4-methyl-3-[2-oxo-3-(1-pipendinyl)-1(2H)-pyrazinyl]-benzamide], the pIC50 was 6.8.

For `CCNC[C@@H](O)COc1ccccc1C(C)(C)Nc1nccn(-c2cc(C(=O)NC3CC3)cc(F)c2C)c1=O` [Example 308, N-Cyclopropyl-3-[3-{[1-(2-{[(2R)-3-(ethylamino)-2-hydroxypropyl]oxy}phenyl)-1-methylethyl]amino}-2-oxopyrazin-1(2H)-yl]-5-fluoro-4-methylbenzamide], the pIC50 was 10.4.

As to `Cc1ccc(C(=O)NC2CC2)cc1-n1ccnc(NC(C)(C)Cc2ccc(F)cc2)c1=O` [Example 62, N-Cyclopropyl-3-[3-[[2-(4-fluorophenyl)-1,1-dimethylethyl]amino]-2-oxo-1(2H)-pyrazinyl]-4-methyl-benzamide], the pIC50 came out at 7.

For the molecule `CCc1ccc(C(=O)NC2CC2)cc1-n1ccnc(NC(C)(C)c2ccccc2OCCNCCO)c1=O` [Example 291, N-Cyclopropyl-4-ethyl-3-[3-{[1-(2-{2-[(2-hydroxyethyl)amino]ethoxy}phenyl)-1-methylethyl]amino}-2-oxopyrazin-1(2H)-yl]benzamide], the pIC50 was 8.5.

On to `Cc1ccc(C(=O)NC2CC2)cc1-n1cc(CN(C)C)nc(NCc2ccccc2)c1=O` [Example 105, N-Cyclopropyl-3-[5-[(dimethylamino)methyl]-2-oxo-3-[(phenylmethyl)amino]-1(2H)-pyrazinyl]-4-methyl-benzamide], for which the pIC50 is listed as 6.2.

Broadly, the IC50 is the concentration needed to halve the response being measured. On to `Cc1ccc(C(=O)NC2CC2)cc1-n1ccnc(N2CCc3ccccc3C2)c1=O` [Example 30, N-Cyclopropyl-3-[3-(3,4-dihydro-2(1H)-isoquinolinyl)-2-oxo-1(2H)-pyrazinyl]-4-methyl-benzamide], for which the IC50 is 126 nM.

As for `Cc1c(F)cc(C(=O)NC2CC2)cc1-n1ccnc(NC(C)(C)c2ccccc2OCCNCCC(=O)O)c1=O` [Example 313, N-(2-{2-[1-({4-[5-(Cyclopropylcarbamoyl)-3-fluoro-2-methylphenyl]-3-oxo-3,4-dihydropyrazin-2-yl}amino)-1-methylethyl]phenoxy}ethyl)-beta-alanine], the negative logarithm of the IC50 (pIC50) was found to be 9.9.

For the molecule `CNCCOc1ccccc1C(C)(C)Nc1nccn(-c2cc(C(=O)NC3(C)CC3)ccc2C)c1=O` [Example 227, 4-Methyl-N-(1-methylcyclopropyl)-3-[3-[[1-methyl-1-[2-[2-(methylamino)ethoxy]phenyl]ethyl]amino]-2-oxo-1(2H)-pyrazinyl]-benzamide], the pIC50 turned out to be 8.5.

In the case of `CCNCCOc1ccccc1C(C)(C)Nc1nccn(-c2cc(C(=O)NC3CC3)cc(F)c2C)c1=O` [Example 252, N-Cyclopropyl-3-[3-[[1-[2-[2-(ethylamino)ethoxy]phenyl]-1-methylethyl]amino]-2-oxo-1(2H)-pyrazinyl]-5-fluoro-4-methyl-benzamide], the pIC50 stood at 10.1.

On to `CCNCCOc1c(F)cccc1C1(Nc2nccn(-c3cc(C(=O)NC4CC4)ccc3C)c2=O)CC1` [Example 286, N-Cyclopropyl-3-{3-[(1-{2-[2-(ethylamino)ethoxy]-3-fluorophenyl}cyclopropyl)amino]-2-oxopyrazin-1(2H)-yl}-4-methylbenzamide], for which the pIC50 stood at 9.3.

As for `Cc1ccc(C(=O)NC2CC2)cc1-n1ccnc(NC[C@@H](C)c2ccccc2)c1=O` [Example 58, N-Cyclopropyl-4-methyl-3-[2-oxo-3-[[(2S)-2-phenylpropyl]amino]-1(2H)-pyrazinyl]-benzamide], the pIC50 worked out at 7.

With `CCONC(=O)c1ccc(C)c(-n2ccnc(NC(C)(C)c3ccccc3OCCNC)c2=O)c1` [Example 222, N-Ethoxy-4-methyl-3-[3-[[1-methyl-1-[2-[2-(methylamino)ethoxy]phenyl]ethyl]amino]-2-oxo-1(2H)-pyrazinyl]-benzamide], the pIC50 came out at 9.

As to `Cc1ccc(C(=O)NC2CC2)cc1-n1ccnc(NC2(c3ccccc3OCCNC[C@H](C)O)CC2)c1=O` [Example 230, N-Cyclopropyl-3-[3-[[1-[2-[2-[[(2S)-2-hydroxypropyl]amino]ethoxy]phenyl]cyclopropyl]amino]-2-oxo-1(2H)-pyrazinyl]-4-methyl-benzamide], the pIC50 stood at 10.
